US8288387B2, “Napthalimide-benzimidazole hybrids as potential antitumor agents and process for the preparation thereof” (Council of Scientific & Industrial Research, priority 2008, dated 2012)

Columns and labels:
MDA-MB-231/ATCC = test: NCI in vitro anticancer SRB assay, MDA-MB-231/ATCC; assay type: cell-based, human; conditions: Breast Cancer
Description: (§1) Anticancer activity: In vitro biological activity studies were carried out at the National Cancer Institute (USA).
(§2) The compounds 5a-b evaluated for in vitro anticancer activity against sixty human tumour cells derived from nine cancer types (leukemia, non-small-cell lung, colon, CNS, melanoma, ovarian, prostate, and breast cancer) as shown in Table 1. For each compound, dose response curves for each cell line were measured at a minimum of five concentrations at 10 fold dilutions. A protocol of 48 h continuous drug exposure was used and a sulforhodamine B (SRB) protein assay was used to estimate cell viability or growth. The concentration causing 50% cell growth inhibition (GI50), total cell growth inhibition (TGI 0% growth) and 50% cell death (LC50, −50% growth) compared with the control was calculated. […] The MG MID of log TGI and log LC50 have shown similar pattern to the log GI50 MG MID. The other compounds 9a-c evaluated for in vitro one dose anticancer activity against nine human tumor cell panels containing sixty cell lines in percent growth inhibition values are listed in Table 3.

SK-MEL-5 = test: NCI in vitro anticancer SRB assay, SK-MEL-5; assay type: cell-based, human; conditions: SK-MEL-5, Melanoma
Description: as §1, §2

OVCAR-4 = test: NCI in vitro anticancer SRB assay, OVCAR-4; assay type: cell-based, human; conditions: OVCAR-4, Ovarian Cancer
Description: as §1, §2

SF-539 = test: NCI in vitro anticancer SRB assay, SF-539; assay type: cell-based, human; conditions: SF-539, CNS Cancer
Description: as §1, §2

HS 578T = test: NCI in vitro anticancer SRB assay, HS 578T; assay type: cell-based, human; conditions: Breast Cancer
Description: as §1, §2

T-47D [1] = test: NCI in vitro anticancer SRB assay, T-47D; assay type: cell-based, human; conditions: Breast Cancer
Description: as §1, §2

786-0 = test: NCI in vitro anticancer SRB assay, 786-0; assay type: cell-based, human; conditions: 786-0, Renal Cancer
Description: as §1, §2

MCF7 = test: NCI in vitro anticancer SRB assay, MCF7; assay type: cell-based, human; conditions: MCF7, Breast Cancer
Description: as §1, §2

EKVX = test: NCI in vitro anticancer SRB assay, EKVX; assay type: cell-based, human; conditions: Non-Small Cell Lung Cancer
Description: as §1, §2

BT-549 = test: NCI in vitro anticancer SRB assay, BT-549; assay type: cell-based, human; conditions: BT-549, Breast Cancer
Description: as §1, §2

MALME-3M = test: NCI in vitro anticancer SRB assay, MALME-3M; assay type: cell-based, human; conditions: Melanoma
Description: as §1, §2

KM12 = test: NCI in vitro anticancer SRB assay, KM12; assay type: cell-based, human; conditions: KM12, Colon Cancer
Description: as §1, §2

SW-620 = test: NCI in vitro anticancer SRB assay, SW-620; assay type: cell-based, human; conditions: SW-620, Colon Cancer
Description: as §1, §2

U251 = test: NCI in vitro anticancer SRB assay, U251; assay type: cell-based, human; conditions: U251, CNS Cancer
Description: as §1, §2

SK-MEL-28 = test: NCI in vitro anticancer SRB assay, SK-MEL-28; assay type: cell-based, human; conditions: SK-MEL-28, Melanoma
Description: as §1, §2

HCT-116 = test: NCI in vitro anticancer SRB assay, HCT-116; assay type: cell-based, human; conditions: HCT-116, Colon Cancer
Description: as §1, §2

K-562 = test: NCI in vitro anticancer SRB assay, K-562; assay type: cell-based, human; conditions: K-562, Leukemia
Description: as §1, §2

sixty human tumour cells = test: In vitro cytotoxicity, mean graph midpoints over all cell lines; assay type: cell-based; conditions: mean graph midpoint
Description: as §1, §2

NCI-H322M = test: NCI in vitro anticancer SRB assay, NCI-H322M; assay type: cell-based, human; conditions: Non-Small Cell Lung Cancer
Description: as §1, §2

RXF 393 = test: NCI in vitro anticancer SRB assay, RXF 393; assay type: cell-based, human; conditions: RXF 393, Renal Cancer
Description: as §1, §2

DU 145 = test: NCI in vitro anticancer SRB assay, DU 145; assay type: cell-based, human; conditions: DU 145, Prostate Cancer
Description: as §1, §2

SF-295 = test: In vitro one dose primary anticancer assay, SF-295; assay type: cell-based, human; conditions: CNS (SF-295), 10^−5 Molar concentration
Description: as §1, §2

OVCAR8 = test: In vitro one dose primary anticancer assay, OVCAR8; assay type: cell-based, human; conditions: Ovarian (OVCAR8), 10^−5 Molar concentration
Description: as §1, §2

T-47D [2] = test: In vitro one dose primary anticancer assay, T-47D; assay type: cell-based, human; conditions: Breast (T-47D), 10^−5 Molar concentration
Description: as §1, §2

UO-31 = test: In vitro one dose primary anticancer assay, UO-31; assay type: cell-based, human; conditions: Renal (UO-31), 10^−5 Molar concentration
Description: as §1, §2

HL-60 = test: In vitro one dose primary anticancer assay, HL-60; assay type: cell-based, human; conditions: Leukemia (HL-60), 10^−5 Molar concentration
Description: as §1, §2

SNB-75 = test: NCI in vitro anticancer SRB assay, SNB-75; assay type: cell-based; conditions: Homo sapiens, SNB-75, CNS Cancer
Description: as §1, §2

[3] = log10 of drug concentration causing 50% cell death (−50%)
[4] = log10 of drug concentration causing total cell growth inhibition (0% growth)
[5] = log10 of drug molar concentration causing 50% cell growth inhibition
[6] = Homo sapiens, 48 h drug exposure, SRB
[7] = Homo sapiens, repeat test values

2-{4-[4-(6-morpholino-2-benzimidazolyl)phenoxy]butyl}naphthalimide [Compound 5b]
GI50 (MDA-MB-231/ATCC; 48 h drug exposure, SRB): 2510 nM
GI50 (MDA-MB-231/ATCC; repeat test values): 4250 nM
GI50 (SK-MEL-5; 48 h drug exposure, SRB): 1440 nM
GI50 (SK-MEL-5; repeat test values): 1770 nM
GI50 (OVCAR-4; 48 h drug exposure, SRB): 1470 nM
GI50 (OVCAR-4; repeat test values): 2210 nM
GI50 (SF-539; 48 h drug exposure, SRB): 1700 nM
GI50 (SF-539; repeat test values): 1600 nM
GI50 (HS 578T; 48 h drug exposure, SRB): 990 nM
GI50 (HS 578T; repeat test values): 4680 nM
GI50 (T-47D [1]; 48 h drug exposure, SRB): 2200 nM
GI50 (T-47D [1]; repeat test values): 4320 nM
GI50 (786-0; 48 h drug exposure, SRB): 1210 nM
GI50 (786-0; repeat test values): 1370 nM
GI50 (MCF7; 48 h drug exposure, SRB): 3330 nM
GI50 (MCF7; repeat test values): 2560 nM
GI50 (EKVX; 48 h drug exposure, SRB): 12200 nM
GI50 (EKVX; repeat test values): 25400 nM
GI50 (BT-549; 48 h drug exposure, SRB): 1450 nM
GI50 (BT-549; repeat test values): 1540 nM
GI50 (MALME-3M; 48 h drug exposure, SRB): 90 nM
GI50 (MALME-3M; repeat test values): 3340 nM
GI50 (KM12; 48 h drug exposure, SRB): 1140 nM
GI50 (KM12; repeat test values): 7250 nM
GI50 (SW-620; 48 h drug exposure, SRB): 3190 nM
GI50 (SW-620; repeat test values): 4490 nM
GI50 (U251; 48 h drug exposure, SRB): 1410 nM
GI50 (U251; repeat test values): 1660 nM
GI50 (SK-MEL-28; 48 h drug exposure, SRB): 1300 nM
GI50 (SK-MEL-28; repeat test values): 1560 nM
GI50 (HCT-116; 48 h drug exposure, SRB): 1760 nM
GI50 (K-562; 48 h drug exposure, SRB): 2970 nM
GI50 (K-562; repeat test values): 3250 nM
Log LC50 MG MID (sixty human tumour cells; [3]): −4.46
Log TGI MG MID (sixty human tumour cells; [4]): −4.94
Log GI50 MG MID (sixty human tumour cells; [5]): −5.54
Log GI50 MG MID (sixty human tumour cells; repeated test values): −5.35
Log LC50 MG MID (sixty human tumour cells; repeated test values): −4.27
Log TGI MG MID (sixty human tumour cells; repeated test values): −4.71
GI50 (NCI-H322M; 48 h drug exposure, SRB): 110 nM
GI50 (NCI-H322M; repeat test values): 40700 nM
GI50 (RXF 393; 48 h drug exposure, SRB): 850 nM
GI50 (RXF 393; repeat test values): 340 nM
GI50 (DU 145; 48 h drug exposure, SRB): 3270 nM
GI50 (DU 145; repeat test values): 4560 nM

2-{5-[4-(5-[4-(6-morpholino-2-benzimidazolyl)phenoxy]pentyl)piperazino]pentyl}napthalimide [Compound 9c]
% GI (percent growth inhibition) (SF-295): 84%
% GI (percent growth inhibition) (OVCAR8): 89%
% GI (percent growth inhibition) (T-47D [2]): 99%
% GI (percent growth inhibition) (UO-31): 96%
% GI (percent growth inhibition) (HL-60): 97%

CN1CCN(c2ccc3nc(-c4ccc(OCCCN5C(=O)c6cccc7cccc(c67)C5=O)cc4)[nH]c3c2)CC1 [Compound 5a, 2-{3-[4-(6-[4-methylpiperazino]2-benzimidazolyl)phenoxy]propyl}napthalimide]
GI50 (MDA-MB-231/ATCC; [6]): 1510 nM
GI50 (MDA-MB-231/ATCC; [7]): 1410 nM
GI50 (SK-MEL-5; [6]): 1690 nM
GI50 (SK-MEL-5; [7]): 1600 nM
GI50 (OVCAR-4; [6]): 1580 nM
GI50 (OVCAR-4; [7]): 1850 nM
GI50 (SF-539; [6]): 1640 nM
GI50 (SF-539; [7]): 1860 nM
GI50 (HS 578T; [6]): 2100 nM
GI50 (HS 578T; [7]): 2110 nM
GI50 (T-47D [1]; Homo sapiens, T47D, 48 h drug exposure, SRB): 1540 nM
GI50 (T-47D [1]; Homo sapiens, T47D, repeat test values): 2660 nM
GI50 (786-0; [6]): 1530 nM
GI50 (786-0; [7]): 1740 nM
GI50 (MCF7; [6]): 1440 nM
GI50 (MCF7; [7]): 1500 nM
GI50 (EKVX; [6]): 1370 nM
GI50 (EKVX; [7]): 1830 nM
GI50 (BT-549; [7]): 4800 nM
GI50 (MALME-3M; [6]): 7660 nM
GI50 (MALME-3M; [7]): 2560 nM
GI50 (KM12; [6]): 1720 nM
GI50 (KM12; [7]): 2030 nM
GI50 (SW-620; [6]): 1700 nM
GI50 (SW-620; [7]): 1830 nM
GI50 (U251; Homo sapiens, U-251, 48 h drug exposure, SRB): 1780 nM
GI50 (U251; Homo sapiens, U-251, repeat test values): 1970 nM
GI50 (SNB-75; 48 h drug exposure, SRB): 20 nM
GI50 (SNB-75; repeat test values): 1770 nM
GI50 (SK-MEL-28; [6]): 1480 nM
GI50 (SK-MEL-28; [7]): 1800 nM
GI50 (HCT-116; [6]): 1760 nM
GI50 (HCT-116; [7]): 1640 nM
GI50 (K-562; Homo sapiens, K562, 48 h drug exposure, SRB): 490 nM
GI50 (K-562; Homo sapiens, K562, repeat test values): 1580 nM
Log LC50 MG MID (sixty human tumour cells; [3]): −4.20
Log TGI MG MID (sixty human tumour cells; [4]): −4.80
Log GI50 MG MID (sixty human tumour cells; [5]): −5.34
Log GI50 MG MID (sixty human tumour cells; repeated test values): −5.62
Log LC50 MG MID (sixty human tumour cells; repeated test values): −4.39
Log TGI MG MID (sixty human tumour cells; repeated test values): −5.08
GI50 (NCI-H322M; [6]): 1810 nM
GI50 (NCI-H322M; [7]): 1640 nM
GI50 (RXF 393; [7]): 10000 nM
GI50 (DU 145; [6]): 1450 nM
GI50 (DU 145; [7]): 1740 nM

2-{4-[4-(4-[4-(6-[4-methylpiperazino]-2-benzimidazolyl)phenoxy]butyl)piperazino]butyl}napthalimide [Compound 9a]
% GI (percent growth inhibition) (SF-295): 71%
% GI (percent growth inhibition) (OVCAR8): 77%
% GI (percent growth inhibition) (T-47D [2]): 64%
% GI (percent growth inhibition) (UO-31): 85%
% GI (percent growth inhibition) (HL-60): 84%

2-{4-[4-(4-[4-(6-morpholino-2-benzimidazolyl)phenoxy]butyl)piperazino]butyl}napthalimide [Compound 9b]
% GI (percent growth inhibition) (SF-295): 50%
% GI (percent growth inhibition) (OVCAR8): 78%
% GI (percent growth inhibition) (T-47D [2]): 50%
% GI (percent growth inhibition) (UO-31): 68%
% GI (percent growth inhibition) (HL-60): 50%
